Measurements published in patent US9493432B2, “Cyclopentylbenzamide derivatives and their use for the treatment of psychotic and cognitive disorders” (Takeda Pharmaceutical Company Limited, priority 2013, dated 2016).

What was measured:
human orexin receptor 1 = human orexin receptor 1 (Homo sapiens (Human), UniProt O43613); experiment: Orexin antagonist activity, intracellular calcium FLIPR assay (orexin receptor 1); type: cell-based; conditions: RBL-2H3 cells stably expressing human orexin receptor 1; Ca2+ dye FLIPR; compound 15 minutes before orexin-A at approximately 80% maximal response; read-out: Human Orexin1R IC50
Sequence of human orexin receptor 1 (O43613 whole entry): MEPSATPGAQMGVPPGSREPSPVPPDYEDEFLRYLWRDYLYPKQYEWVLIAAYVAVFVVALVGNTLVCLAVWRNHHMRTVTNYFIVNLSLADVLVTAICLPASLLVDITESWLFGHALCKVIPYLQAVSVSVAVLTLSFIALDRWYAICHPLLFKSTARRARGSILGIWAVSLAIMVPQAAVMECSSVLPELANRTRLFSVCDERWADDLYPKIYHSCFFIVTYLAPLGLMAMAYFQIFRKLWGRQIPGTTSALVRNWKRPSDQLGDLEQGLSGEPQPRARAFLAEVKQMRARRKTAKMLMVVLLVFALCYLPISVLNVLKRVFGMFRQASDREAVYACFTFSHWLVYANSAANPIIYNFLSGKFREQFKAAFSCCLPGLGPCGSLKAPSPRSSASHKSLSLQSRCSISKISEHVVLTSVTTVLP
Protocol: (§1) Orexin antagonist activity was determined by measuring changes in intracellular calcium levels using a Ca^2+ sensitive fluorescent dye. The changes in fluorescent signal were monitored by Fluorescent Imaging Plate Reader (FLIPR™) technology available from Molecular Devices, LLC, U.S.A. Orexin mediated increases in intracellular Ca^2+ concentration were readily detected upon activation with orexin-A. Twenty-four hours prior to the assay, RBL-2H3 cells stably expressing either human orexin receptor 1 or human orexin receptor 2 were seeded in cell culture medium in black, clear-bottom 384-well plates (commercially available from Corning Inc., U.S.A.) and grown overnight at 37° C., 5% CO2. On the day of the assay, cell culture media was removed and cells were loaded with Calcium 5 Dye (commercially sold by Molecular Devices, LLC, U.S.A.) for 1 hour at 37° C., 5% CO2. Test compounds (at 10 point half log concentration response curves from 10 μM) were added to cells for 15 minutes prior to the addition of orexin-A to all wells, to achieve a final concentration that produces approximately an 80% maximal response. The IC50 values were determined from ten point concentration response curves. Curves were generated using the average of two wells for each data point.

human orexin receptor 2 = human orexin receptor 2 (Homo sapiens (Human), UniProt O43614); experiment: Orexin antagonist activity, intracellular calcium FLIPR assay (orexin receptor 2); type: cell-based; conditions: RBL-2H3 cells stably expressing human orexin receptor 2; Ca2+ dye FLIPR; compound 15 minutes before orexin-A at approximately 80% maximal response; read-out: Human Orexin2R IC50
Sequence of human orexin receptor 2 (O43614 whole entry): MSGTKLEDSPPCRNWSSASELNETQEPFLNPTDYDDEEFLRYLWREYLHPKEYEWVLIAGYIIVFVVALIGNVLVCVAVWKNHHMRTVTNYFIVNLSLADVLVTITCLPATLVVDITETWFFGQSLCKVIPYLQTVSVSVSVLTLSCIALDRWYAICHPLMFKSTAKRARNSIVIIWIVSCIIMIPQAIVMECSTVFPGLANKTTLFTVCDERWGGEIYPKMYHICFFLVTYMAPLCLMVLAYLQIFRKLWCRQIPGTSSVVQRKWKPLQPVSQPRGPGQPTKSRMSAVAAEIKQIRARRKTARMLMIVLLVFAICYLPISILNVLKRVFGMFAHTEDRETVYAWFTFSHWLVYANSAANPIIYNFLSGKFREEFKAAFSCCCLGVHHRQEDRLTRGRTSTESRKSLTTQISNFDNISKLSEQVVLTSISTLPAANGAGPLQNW
Protocol: as §1

Structure (SMILES)	IC50 (human orexin receptor 1) [nM]	IC50 (human orexin receptor 2) [nM]
COc1cccc(OC)c1C(=O)N[C@H]1CCC[C@@H]1Nc1nc2cc(Cl)ccc2s1 [Example 6, N-[(1S,2S)-2-[(5-Chloro-1,3-benzothiazol-2-yl)amino]cyclopentyl]-2,6-dimethoxybenzamide]	35	> 10000
COc1cccc(OC)c1C(=O)N[C@H]1CCC[C@H]1Nc1nc2ccccc2o1 [Example 7, N-[(1S,2R)-2-[(1,3-Benzoxazol-2-yl)amino]cyclopentyl]-2,6-dimethoxybenzamide]	26	1900
COc1cccc(OC)c1C(=O)N[C@H]1CCC[C@@H]1N(C)c1nc2ccc(F)cc2s1 [Example 8, N-[(1S,2S)-2-[(6-Fluoro-1,3-benzothiazol-2-yl)(methyl)amino]cyclopentyl]-2,6-dimethoxybenzamide]	35	2100
COc1cccc(OC)c1C(=O)N[C@H]1CCC[C@@H]1Nc1nc2ccccc2o1 [Example 9, N-[(1S,2S)-2-[(1,3-Benzoxazol-2-yl)amino]cyclopentyl]-2,6-dimethoxy-benzamide]	99	> 10000
COc1cccc(OC)c1C(=O)N[C@H]1CCC[C@@H]1Nc1nc2ccc(Cl)cc2s1 [Example 10, N-[(1S,2S)-2-[(6-Chloro-1,3-benzothiazol-2-yl)amino]cyclopentyl]-2,6-dimethoxybenzamide]	210	7200
COc1cccc(OC)c1C(=O)N[C@@H]1CCC[C@H]1Nc1nc2ccccc2s1 [Example 11, N-[(1R,2R)-2-[(1,3-Benzothiazol-2-yl)amino]cyclopentyl]-2,6-dimethoxybenzamide]	360	1800
COc1cccc(OC)c1C(=O)N[C@@H]1CCC[C@H]1Nc1nc2ccccc2o1 [Example 12, N-[(1R,2R)-2-[(1,3-Benzoxazol-2-yl)amino]cyclopentyl]-2,6-dimethoxy-benzamide]	470	3500
COc1cccc(OC)c1C(=O)N[C@@H]1CCC[C@@H]1Nc1nc2ccc(Cl)cc2s1 [Example 13, N-[(1R,2S)-2-[(6-Chloro-1,3-benzothiazol-2-yl)amino]cyclopentyl]-2,6-dimethoxybenzamide]	580	5300
COc1cccc(OC)c1C(=O)N[C@@H]1CCC[C@H]1Nc1nc2ccc(Cl)cc2s1 [Example 14, N-[(1R,2R)-2-[(6-Chloro-1,3-benzothiazol-2-yl)amino]cyclopentyl]-2,6-dimethoxybenzamide]	1000	680
COc1cccc(OC)c1C(=O)N[C@H]1CCC[C@H]1Nc1nc2ccc(Cl)cc2s1 [Example 15, N-[(1S,2R)-2-[(6-Chloro-1,3-benzothiazol-2-yl)amino]cyclopentyl]-2,6-dimethoxybenzamide]	35	160
Cc1ccc(-n2nccn2)c(C(=O)N[C@H]2CCC[C@@H]2Nc2nc3ccc(F)cc3s2)c1 [Example 16, N-[(1S,2S)-2-[(6-Fluoro-1,3-benzothiazol-2-yl)amino]cyclopentyl]-5-methyl-2-(2H-1,2,3-triazol-2-yl)benzamide]	13	2000
CCOc1cccc(OCC)c1C(=O)N[C@H]1CCC[C@H]1Nc1nc2ccccc2o1 [Example 18, N-[(1S,2R)-2-[(1,3-Benzoxazol-2-yl)amino]cyclopentyl]-2,6-diethoxy-benzamide]	25	460
Cc1ccc(-n2nccn2)c(C(=O)N[C@H]2CCC[C@@H]2Nc2nc3ccccc3s2)c1 [Example 19, N-[(1S,2S)-2-[(1,3-Benzothiazol-2-yl)amino]cyclopentyl]-5-methyl-2-(2H-1,2,3-triazol-2-yl)benzamide]	15	7300
Cc1ccc(-n2nccn2)c(C(=O)N[C@H]2CCC[C@@H]2Nc2ccc3ccccc3n2)c1 [Example 20, 5-Methyl-N-[(1S,2S)-2-[(quinolin-2-yl)amino]cyclopentyl]-2-(2H-1,2,3-triazol-2-yl)benzamide]	290	4100
